The values that follow come from PMC5096027, “Naturally Inspired Peptide Leads: Alanine Scanning Reveals an Actin‐Targeting Thiazole Analogue of Bisebromoamide” (Chembiochem, 2016).

The test system of test [1] is HCT116 cells. The test is described as follows: IncuCyte ZOOM kinetic cell growth (confluence) assay. It counts as cell-based, human. The note with it: half-log dose response, kinetic readout every 3 h. Here is the method: (§1) The effects of Bis1–6 on the growth of HCT116 cells (human colon cancer cell‐line) were assessed on an IncuCyte Zoom platform. HCT116 cells express an activating Ras mutation, and represent an aggressive and common form of human colon cancer.26 Dasatinib (dual Src‐Abl tyrosine kinase inhibitor) and DMSO (vehicle, 0.1 % v/v) were used as controls. […] The relative activity of all the analogues was further evaluated by testing each in an eight‐point half‐log dose–response assay (alamarBlue cell viability assay).
(§2) High‐content imaging methods: Kinetic cell growth and apoptosis assays were performed with an IncuCyte ZOOM live‐cell imaging system (Essen Bioscience, Ann Arbor, MI). Cytoskeletal morphology assays were performed on an ImageXpress Micro High‐Content Analysis System (Molecular Devices, Sunnyvale, CA).
Apoptosis assay: Cells were seeded in a 96‐well plate (5000 cells per well) and incubated for 24 h before treatment. […] Apoptosis was detected with the cell‐permeable caspase biosensor NucView 488 (Biotium, Hayward, CA), which was added (1 μM) at the same time as compound. IncuCyte imaging software automatically quantifies cell density and NucView/Caspase positive objects at time points following compound addition. This provided a kinetic readout of cell growth and apoptosis induction in cells after addition of each analogue. […]

In test [2] the test system is HCT116 cells. The test can be described thus: Cytoskeletal morphology assay (ImageXpress high-content imaging, F-actin/DAPI). It counts as cell-based, human. The note with it: 1 μM, 48 h, F-actin (phalloidin) and DAPI staining.
Excerpt: Perhaps most striking in terms of identifying a mechanism for the cytotoxicity were the morphological images collected on an ImageXpress high content microscope (Figure 2). […] The morphological changes induced by Bis1 and Bis2 are in good accord with those previously reported for the parent compound (BBA) in HeLa cells,8 and indicate that the switch from thiazoline to thiazole to facilitate the generation of these Tz‐BBA analogues by SPPS has not impaired activity.
Figure 2 HCT116 cytoskeletal morphology after treatment with 1 μM Bis1–6 for 48 h. Cells were permeabilised and fixed in paraformaldehyde prior to staining nuclei (DAPI, blue) and filamentous‐actin fibres (F‐actin; phalloidin conjugated to Alexa Fluor […], green). Images were acquired in an automated ImageXpress microXL high‐content imaging platform (Molecular Devices) with a 20× objective; images show HCT116 cell morphology for DMSO (control) and each treatment group: A) DMSO; B) cytochalasin D; C) Bis1; D) Bis2; E) Bis3 (representative also for Bis4); F) Bis 6 (representative also for Bis5).
as §2
Cytoskeletal morphology assays: Cells were seeded in a 96‐well plates (5000 cells per well) and incubated for 24 h before treatment. The medium was then replaced with fresh medium containing Bis1–6 as eight‐point half‐log doses and incubated for 48 h. Control cells were incubated with DMSO (0.1 % v/v). All images were acquired on an automated ImageXpress Micro XL high‐content imaging platform (Molecular Devices) with a ×20 Plan Fluor ELWD Ph1 DM objective (Nikon) and a 16‐bit camera (binning resolution of 1). Four separate images per well were acquired by using laser‐based autofocus parameters optimised for cell plates and cell type. All immunostaining procedures were performed at room temperature in 96‐well plates (100 μL unless otherwise stated). Cells were fixed by addition of paraformaldehyde (8 % in PBS; final concentration 4 %) and incubated for 20 min. Cells were washed three times with PBS then incubated with a mixture of phalloidin conjugated to Alexa Fluor […] (Molecular Probes (Thermo Fisher) A12379; diluted 1:500) and 4′,6‐diamidino‐2‐phenylindole (DAPI; Sigma–Aldrich D8417) for 45 min in the absence of light. Cells were washed three times with PBS before imaging. Representative images are in Figure 2.

The test system of a further test is protein kinase C (PKC). The test is described as follows: Reverse phase protein array (RPPA) profiling, PKC signalling. The note with it: HCT116 cell lysates, 3.0–0.03 μM, 24 h exposure, normalised to DMSO. The class given is cell-based, human. An excerpt:
(§3) The only clearly discernible inhibition of pathway signalling was for protein kinase C (PKC); there was discernible reduction in total protein expression of the insulin receptor substrate protein IRS‐1 (Figure S2).
(§4) Reverse phase protein array methods: The abundance of total protein and phosphorylated protein epitopes was quantified by using a Zeptosens reverse phase protein microarray platform (Bayer Technology Services, Leverkusen, Germany) as previously described.30 Briefly, HCT116 cells were seeded (4×10^5 cells per well) in six‐well plates. Cells were pre‐incubated in treatment‐free medium for 48 h prior to addition of Bis1–3 at six‐point half‐log doses (3.0–0.03 μM) and incubation for 30 min, 3 h and 24 h. Control samples were treated with medium containing DMSO (0.1 % v/v). The medium was then removed, and the cells were lysed by incubation with CLB1 buffer (Zeptosens) for 30 min. Cell lysates were normalised to a uniform protein concentration with CSBL1 spotting buffer (Zeptosens) prior to preparing a final fourfold concentration series of ([…] mL^−1). The concentration series of each sample was printed onto ZeptoChip protein microarray chips (Zeptosens) under controlled conditions (50 % humidity, 14 °C) by using a Nano‐Plotter NP21/E non‐contact printer (GeSIM, Radeberg, Germany). Single droplets (400 pL) were deposited onto the chips. A reference grid (four columns, 22 rows) of Alexa Fluor 647‐conjugated BSA (Invitrogen) was spotted onto each sub‐array; samples were spotted between reference columns. […] Microarray images representing the longest exposure without saturation of the fluorescence signal were automatically selected for analysis in ZeptoView 3.1 software. A weighted linear‐fit through the fourfold concentration series was used to calculate relative fluorescence intensity (RFI). […]
(§5) Figure S2. […] The mechanism-of-action of Tz-BBA analogues Bis1-3 at the post translational pathway level was evaluated against a panel of 62 protein and phospho-protein analytes by reverse phase protein array (RPPA). […]

Another test deals with IRS‐1. The test can be described thus: Reverse phase protein array (RPPA) profiling, IRS-1 total protein expression. It counts as cell-based, human. The note with it: HCT116 cell lysates, 3.0–0.03 μM, 24 h exposure, normalised to DMSO.
Excerpt: as §3, §4, §5

Test [3] relates to HCT116 cells. The test is described as follows: alamarBlue cell viability assay. The class given is cell-based, human. The note with it: 72 h incubation, eight-point half-log doses 0.003–10 μM, alamarBlue fluorescence, relative to DMSO control, n=3. Here is the method:
as §1
Figure 1 HCT116 cell viability. Dose–response curves determined by an alamarBlue cell viability assay after incubation with Bis1–6 (0.003–10 μM) for 72 h. Conversion of the alamarBlue reagent to the activated fluorescent resorufin cell viability indicator was calculated for DMSO (vehicle) and compound‐treated samples. Viability is expressed relative to control (DMSO). Dose–response plots are mean±SD (n=3).
Cell viability assay: HCT116 cells were seeded in a 96‐well plate (5000 cells per well) and incubated for 48 h before treatment. The medium (DMEM with 10 % foetal calf serum and 2 mM glutamine) was replaced with fresh medium containing each of Bis1–6 as eight‐point half‐log doses, and incubated for 3 days. alamarBlue (Invitrogen) cell viability reagent (10 % v/v) was added, and the plate was incubated for 1 h. Fluorescence was detected with an EnVision multilabel reader (λ ex=540 nm, λ em=590 nm; PerkinElmer). All data were normalised to DMSO‐treated cells, and curves were fitted in GraphPad Prism with a sigmoidal variable‐slope curve.
(In general: Alamar Blue is a resazurin reagent that responds to reducing activity.)

The test system of a further test is HeLa S3 cells. Set-up: method as in PMID 19803465. The note with it: cited from earlier work.
The test system of test [4] is panel of 39 human cancer cell lines. The arrangement: method as in PMID 19803465. The note with it: cited from earlier work.
Another test concerns ERK. The arrangement: method as in PMID 19803465. The note with it: NRK cells; cited from earlier work.
The next test has as its system ERK and Akt. Set-up: method as in PMID 24133625. The note with it: two renal cancer cell lines; cited from earlier work.
In another test the test system is actin‐filament. The arrangement: method as in PMID 21322638. The note with it: cited from earlier work.

Numbered stars: 1 amine (or outer) side, 2 acyl side, 3 side chain; on linkers, the order of the positions; unused ones are H or OH. Square brackets hold non-standard residues; d marks the D form. Peptide text beside a SMILES is read from it. * marks the point of attachment. X1 = C[C@H]1C[C@@H](c2nc(C(=O)[*:2])cs2)N([*:1])C1; Pyrrolidine(2S-propanoyl) = CCC(=O)[C@@H]1CCCN1*; dNMeTyr(3-Br) = CN[C@H](Cc1ccc(O)c(Br)c1)C(=O)O; NMeF = CN[C@@H](Cc1ccccc1)C(=O)O; Piv = CC(C)(C)C(=O)*

For the compound `CCC(=O)[C@@H]1CCCN1C(=O)[C@H](Cc1ccccc1)N(C)C(=O)[C@@H](CC(C)C)NC(=O)c1csc([C@@H]2C[C@H](C)CN2C(=O)[C@@H](Cc2ccc(O)c(Br)c2)N(C)C(=O)[C@H](C)NC(=O)C(C)(C)C)n1` [Bis1, thiazole‐bisebromoamide] (Piv-A[dNMeTyr(3-Br)][X1][dL][NMeF]-{Pyrrolidine(2S-propanoyl)}), the “repression of cell growth (confluence)” value with HCT116 cells [1] is listed as “most active”. For the same compound, in the test on HCT116 cells [2], the “cytoskeletal morphological changes relative to DMSO control” value was “clear disruption and aggregation of F‐actin filaments together with reduced cell‐substrate adhesion”. In addition, the “PKC pathway signalling (RPPA)” value with protein kinase C (PKC) is on record as “reduced activity of PKC”. Moreover, the “total protein expression of IRS-1 (RPPA)” value in the test with IRS‐1 is recorded as “reduced expression of IRS‐1”.
Take `CC(C)C[C@@H](NC(=O)c1csc([C@@H]2C[C@H](C)CN2C(=O)[C@@H](Cc2ccc(O)c(Br)c2)N(C)C(=O)[C@H](C)NC(=O)C(C)(C)C)n1)C(=O)N(C)[C@@H](Cc1ccccc1)C(=O)N[C@@H](C)C(N)=O` [Bis2] (Piv-A[dNMeTyr(3-Br)][X1][dL][NMeF]A-NH2): the EC50 (commonly the concentration that produces a half-maximal response) in the test with HCT116 cells [3] was 71 nM. The “cytoskeletal morphological changes relative to DMSO control” value in the test on HCT116 cells [2] was “clear disruption and aggregation of F‐actin filaments together with reduced cell‐substrate adhesion”. In the test with protein kinase C (PKC), the “PKC pathway signalling (RPPA)” value is “reduced activity of PKC”. The “total protein expression of IRS-1 (RPPA)” value with IRS‐1 was “reduced expression of IRS‐1”.
Turning to `CCC(=O)[C@@H]1CCCN1C(=O)[C@H](C)NC(=O)[C@@H](CC(C)C)NC(=O)c1csc([C@@H]2C[C@H](C)CN2C(=O)[C@@H](Cc2ccc(O)c(Br)c2)N(C)C(=O)[C@H](C)NC(=O)C(C)(C)C)n1` [Bis3] (Piv-A[dNMeTyr(3-Br)][X1][dL]A-{Pyrrolidine(2S-propanoyl)}), the EC50 with HCT116 cells [3] is 483 nM. The “cytoskeletal morphological changes relative to DMSO control” value with HCT116 cells [2] was “more elongated cells with prominent F‐actin filaments and promotion of cell‐substrate adhesion”. For the same compound, in the test with protein kinase C (PKC), the “PKC pathway signalling (RPPA)” value is “more affected by Bis1 and Bis2 than by Bis3”. Moreover, the “total protein expression of IRS-1 (RPPA)” value with IRS‐1 is “more affected by Bis1 and Bis2 than by Bis3”.
`CCC(=O)[C@@H]1CCCN1C(=O)[C@H](Cc1ccccc1)N(C)C(=O)[C@H](C)NC(=O)c1csc([C@@H]2C[C@H](C)CN2C(=O)[C@@H](Cc2ccc(O)c(Br)c2)N(C)C(=O)[C@H](C)NC(=O)C(C)(C)C)n1` [Bis4] (Piv-A[dNMeTyr(3-Br)][X1]A[NMeF]-{Pyrrolidine(2S-propanoyl)}) had an EC50 in the test with HCT116 cells [3] of 178 nM. Also, the “cytoskeletal morphological changes relative to DMSO control” value in the test on HCT116 cells [2] is “more elongated cells with prominent F‐actin filaments and promotion of cell‐substrate adhesion”.
On to bisebromoamide [BBA], for which, in the test with HeLa S3 cells, the “IC50 against HeLa S3 cells” value is 0.04 µg/mL. The GI50 (commonly the concentration at which growth is held to half of that of the control) in test [4] was 40 nM. The “phosphorylation of ERK” value in the test with ERK was “inhibited”. The “phosphorylation of both ERK and Akt” value in the test with ERK and Akt is given as “inhibited”. The “action on actin filaments” value with actin‐filament was “actin‐filament stabiliser”.
